Reference: ChEMBL document CHEMBL3046257, “Response of sweet maize (Zea mays L.) hybrids to halosulfuron” (Crop Prot, 2008)

Assays:
Zea mays [1] = assay: Toxicity in Zea mays (maize) assessed as plant height relative to untreated control; format: organism-based; details: in vivo
Zea mays [2] = assay: Toxicity in Zea mays (maize) assessed as reduction in cob size relative to untreated control; format: organism-based; parameters: scale not given: the % may be the effect or the level left; details: in vivo

SMILES | Activity (Zea mays [1]) [%] | Activity (Zea mays [2]) [%]
COc1cc(OC)nc(NC(=O)NS(=O)(=O)c2ncccc2C(=O)N(C)C)n1 [NICOSULFURON] | 100 | 
O=C(O)c1nc(Cl)ccc1Cl [CLOPYRALID] |  | 67
COc1nc(C)nc(NC(=O)NS(=O)(=O)c2ccccc2CCC(F)(F)F)n1 [PROSULFURON] | 100 | 
CC(C)N1C(=O)c2ccccc2NS1(=O)=O [BENTAZON] | 100 | 
COC(=O)c1sccc1S(=O)(=O)NC(=O)Nc1nc(C)nc(OC)n1 [THIFENSULFURON-METHYL] |  | 9
